In patent US8551942B2, “Lyophilized anti-fungal compositions” (Merck Sharp & Dohme Corp., priority 2007, dated 2013):

Assay: Glass transition temperature by differential scanning calorimetry (DSC)
Assay type: physicochemical
Conditions: trehalose lyophilized in the same manner as the composition; average of samples
Procedure: The glass transition temperatures referred to herein (e.g., Tg(s) and Tg(c)) are the transition temperatures determined using differential scanning calorimetry (DSC). DSC measures the change in heat capacity between the glassy and rubbery states and is typically indicated by a change in baseline in a DSC thermogram.
The Tg(c) of the lyophilized composition was determined using a DSC Q2000 (TA Instruments) under a stream of nitrogen gas at 50 mL/minute as the purge gas. Several samples of the lyophilized composition (each about 5 mg) were prepared in a nitrogen purged glove box, and each was loaded into an aluminum DSC pan and hermetically sealed. The pans along with an empty pan as control were run in the DSC. The pans were first equilibrated at 25° C., then modulated at ±0.5° C. every 60 seconds, and then the temperature was raised at a rate of 2.5° C. per minute to a final temperature of 140° C. The samples was determined to have a Tg(c) of 97±2° C.
Several samples of trehalose were lyophilized in the same manner as set forth above for the caspofungin diacetate composition. The glass transition temperature Tg(s) of each of the lyophilized trehalose samples was determined using the instrument and procedure employed to determine Tg(c) described in the preceding paragraph. The average Tg(s) of the samples was 118±2° C.

- Tg(s): 118±2 °C
Compound: OC[C@H]1O[C@H](O[C@H]2O[C@H](CO)[C@@H](O)[C@H](O)[C@H]2O)[C@H](O)[C@@H](O)[C@@H]1O [trehalose]
